Source: paper PMC5690597, “Suppression and resolution of autoimmune arthritis by rhesus θ-defensin-1, an immunomodulatory macrocyclic peptide” (PLoS ONE, 2017)

Test system: DA/OlaHsd rats with pristane-induced arthritis
Test: Pristane-induced arthritis (PIA), established disease (AS ≥ 3)
Assay type: in vivo, rat
Details: for effect on arthritis progression by day 3 of treatment compared to vehicle controls: MTX 0.25 mg/kg i.p. q3d, etanercept 0.4 mg/kg s.c. q3d, P < 0.05; for rate of complete disease resolution on day 11, comparison with RA drugs: RTD-1 s.c. (4 of 16), MTX 0.25 mg/kg i.p. q3d (1 of 22), etanercept 0.4 mg/kg s.c. q3d (0 of 21), saline 0 of 19, 2 independent experiments
Description: Female DA/OlaHsd (D blood group allele and Agouti, also known as Dark Agouti), rats were obtained from Harlan Laboratories (Indianapolis, IN). Animals were allowed to acclimate for 48–72 hours prior to experimental use. Animals were fed standard chow ad lib during a 12-hour day/night cycle. PIA was induced in 5–7 week old animals (90–100 gm) by intradermal injection of 250 μl pristane (Sigma) divided into 3–5 sites at the base of the tail. Animals were monitored daily and disease severity of each limb was scored 0–4 using the method of Brand et al.. The severity scores for all limbs of individual animals were totaled to give an individual’s arthritis severity score (AS) ranging from zero for normal animals to maximum disease score of sixteen. […] In three separate trials, treatment was also blinded to scorers. […] Treatment with saline (vehicle), RTD-1, or anti-arthritic agents was randomized and initiated when an animal first presented with an AS of 3 or more. RTD-1 was administered subcutaneously with doses ranging from 0.2 to 5.0 mg/kg in an injection volume of 0.5 ml at intervals ranging from once a day (qd) to once every seven days (q7d). MTX was administered at 0.25 mg/kg by intraperitoneal injection q3d. Etanercept was administered at 0.4 mg/kg by subcutaneous injection q3d.

Molecule	effect on arthritis progression by day 3 of treatment compared to vehicle controls	rate of complete disease resolution on day 11, comparison with RA drugs
CN(Cc1cnc2nc(N)nc(N)c2n1)c1ccc(C(=O)N[C@@H](CCC(=O)O)C(=O)O)cc1 [MTX, Methotrexate, reference compound]	limited the progression of arthritis	4.5%
Etanercept [reference compound]	limited the progression of arthritis	0%
